Molecules are shown by their SMILES. Values after ≈ are worked out from the molar mass of the structure shown.

What all share (format): functional
The test system of assay [1] is Puccinia graminis f. sp. tritici. The experiment in a line: Antifungal activity against Puccinia graminis f. sp. tritici assessed as inhibition of uredospore germination after 48 hr by microscope-slide assay.
The test system of a further assay is Puccinia coronata. The experiment in a line: Antifungal activity against Puccinia coronata assessed as inhibition of uredospore germination after 48 hr by microscope-slide assay.
Assay [2] relates to Colletotrichum gloeosporioides. The experiment in a line: Antifungal activity against Colletotrichum gloeosporioides f. sp. jussiaea assessed as conidial germination at 100 ppm after 48 hr by microscopic analysis.
Assay [3] concerns Colletotrichum gloeosporioides. Nature of the assay: Antifungal activity against Colletotrichum gloeosporioides f. sp. jussiaea assessed as conidial germination at 30 ppm after 48 hr by microscopic analysis.
In assay [4] the test system is Colletotrichum gloeosporioides. The experiment in a line: Antifungal activity against Colletotrichum gloeosporioides f. sp. jussiaea assessed as conidial germination at 10 ppm after 48 hr by microscopic analysis.
The test system of assay [5] is Colletotrichum gloeosporioides. Nature of the assay: Antifungal activity against Colletotrichum gloeosporioides f. sp. jussiaea assessed as conidial germination at 3 ppm after 48 hr by microscopic analysis.

As for `COC(=O)/C=C\c1ccc(OC)c(OC)c1` [METHYL CIS-3,4-DIMETHOXYCINNAMATE], the ED50 in assay [1] was determined as 3.68 ng/mL (≈ 16.6 nM); in the assay on Puccinia coronata, 0.013 ng/mL (≈ 0.0585 nM).

Take `CCCCC[C@@H]1CCCCC[C@@H]2CC(=O)[C@H](CCC(=O)O1)O2.NN` [13-EPIGLOEOSPORONE]: the Activity in assay [2] was found to be 48%; in assay [3], 81%.

Consider `C/C=C1/C(=O)Nc2ccccc21`, for which the Activity is on record as 0% in assay [2], 0% in assay [3], 0% in assay [4] and 40% in assay [5].

Regarding `COC(=O)C(=Cc1ccc(O)c(OC)c1)C(=O)OC`, the ED50 in assay [1] stood at 0.27 ng/mL (≈ 1.01 nM); in the assay with Puccinia coronata, 6.8 ng/mL (≈ 25.5 nM).

Regarding `CCCCC[C@@H]1CCCCC[C@@H]2CC(=O)[C@H](CCC(=O)O1)O2` [(-)-GLOEOSPORONE], the Activity in assay [2] was determined as 49%; in assay [3] it was 82%.

`COC(=O)/C=C\c1ccc(O)c(OC)c1` [METHYL CIS-FERULATE]: the results for the ED50 (in assay [1]; in the assay with Puccinia coronata) were 0.18 ng/mL (≈ 0.864 nM) and 5.57 ng/mL (≈ 26.8 nM), respectively.

Take `C/C=C1\C(=O)Nc2ccccc21`: the Activity in assay [2] is 0%; in assay [3], 0%; in assay [4] it was 0%; in assay [5], 68%.

Take `CCCCC[C@H]1CCCCC[C@H]2CC(=O)[C@@H](CCC(=O)O1)O2.NN` [7-EPIGLOEOSPORONE]: the Activity is recorded as 45% in assay [2] and 82% in assay [3].

`COC(=O)C(=Cc1ccc(OC)c(OC)c1)C(=O)OC` [METHYL 3,4-DIMETHOXYBENZALMALONATE]: the ED50 in assay [1] amounted to 4.16 ng/mL (≈ 14.8 nM); in the assay with Puccinia coronata it was 0.025 ng/mL (≈ 0.0892 nM).

With `CCCCC[C@H]1CCCCC[C@H]2CC(=O)[C@@H](CCC(=O)O1)O2` [(+)-GLOEOSPORONE], the Activity in assay [2] is recorded as 44%; in assay [3] it was 81%.
